In the NIST ThermoML archive (doi:10.1016/j.jct.2016.09.007):
± gives the expanded uncertainty stated by the source.

Assay: xn = mol fraction of the nth substance listed
Conditions: 93.2 kPa, Liquid; for speed of sound: Frequency=3 MHz, Sing-around technique in a fixed-path interferometer; for mass density: Vibrating tube method

CCCC(=O)[O-].CCCC[NH3+] [n-butylammonium butanoate] + CCO
Conditions	mass density, 293.15 K [kg/m3]	mass density, 298.15 K [kg/m3]	mass density, 303.15 K [kg/m3]	mass density, 308.15 K [kg/m3]	mass density, 313.15 K [kg/m3]	speed of sound, 293.15 K [m/s]	speed of sound, 298.15 K [m/s]	speed of sound, 303.15 K [m/s]	speed of sound, 308.15 K [m/s]	speed of sound, 313.15 K [m/s]
x1 = 0.0512	814.143 ± 4	810.002 ± 4	805.829 ± 4	801.613 ± 4	797.355 ± 4	1199 ± 5.2	1182 ± 5.2	1165 ± 5.2	1148.2 ± 5.2	1131.5 ± 5.2
x1 = 0.1009	832.02 ± 4	828.016 ± 4	823.986 ± 4	819.912 ± 4	815.802 ± 4	1227.7 ± 5.2	1210.7 ± 5.2	1193.8 ± 5.2	1177 ± 5.2	1160.4 ± 5.2
x1 = 0.1503	846.238 ± 4	842.335 ± 4	838.406 ± 4	834.444 ± 4	830.445 ± 4	1251.6 ± 5.2	1234.6 ± 5.2	1217.8 ± 5.2	1201.1 ± 5.2	1184.5 ± 5.2
x1 = 0.1994	858.208 ± 4	854.396 ± 4	850.551 ± 4	846.681 ± 4	842.738 ± 4	1272.7 ± 5.2	1255.7 ± 5.2	1238.9 ± 5.2	1222.2 ± 5.2	1205.7 ± 5.2
x1 = 0.2504	868.474 ± 4	864.721 ± 4	860.912 ± 4	857.053 ± 4	853.31 ± 4	1291.1 ± 5.2	1274.2 ± 5.2	1257.4 ± 5.2	1240.8 ± 5.2	1224.2 ± 5.2
x1 = 0.2982	876.405 ± 4	872.722 ± 4	869.017 ± 4	865.27 ± 4	861.491 ± 4	1306 ± 5.2	1289.1 ± 5.2	1272.3 ± 5.2	1255.7 ± 5.2	1239.2 ± 5.2
x1 = 0.3495	883.788 ± 4	880.151 ± 4	876.505 ± 4	872.836 ± 4	869.15 ± 4	1320 ± 5.2	1303.1 ± 5.2	1286.3 ± 5.2	1269.7 ± 5.2	1253.3 ± 5.2
x1 = 0.399	890.046 ± 4	886.464 ± 4	882.862 ± 4	879.217 ± 4	875.544 ± 4	1332.2 ± 5.2	1315.3 ± 5.2	1298.5 ± 5.2	1282 ± 5.2	1265.5 ± 5.2
x1 = 0.4372	894.397 ± 4	890.847 ± 4	887.284 ± 4	883.704 ± 4	880.105 ± 4	1340.7 ± 5.2	1323.8 ± 5.2	1307.1 ± 5.2	1290.5 ± 5.2	1274.1 ± 5.2
x1 = 0.4992	900.42 ± 4	896.912 ± 4	893.396 ± 4	889.863 ± 4	886.306 ± 4	1352.8 ± 5.2	1335.9 ± 5.2	1319.2 ± 5.2	1302.6 ± 5.2	1286.2 ± 5.2
x1 = 0.547	904.601 ± 4	901.123 ± 4	897.636 ± 4	894.139 ± 4	890.621 ± 4	1361.5 ± 5.2	1344.5 ± 5.2	1327.7 ± 5.2	1311.2 ± 5.2	1294.8 ± 5.2
x1 = 0.6017	908.757 ± 4	905.303 ± 4	901.834 ± 4	898.348 ± 4	894.849 ± 4	1370.4 ± 5.2	1353.3 ± 5.2	1336.5 ± 5.2	1319.9 ± 5.2	1303.6 ± 5.2
x1 = 0.649	912.071 ± 4	908.66 ± 4	905.237 ± 4	901.798 ± 4	898.346 ± 4	1377.6 ± 5.2	1360.5 ± 5.2	1343.6 ± 5.2	1326.9 ± 5.2	1310.6 ± 5.2
x1 = 0.6917	914.76 ± 4	911.378 ± 4	907.983 ± 4	904.574 ± 4	901.145 ± 4	1384 ± 5.2	1366.7 ± 5.2	1349.7 ± 5.2	1333 ± 5.2	1316.6 ± 5.2
x1 = 0.7436	917.782 ± 4	914.431 ± 4	911.071 ± 4	907.692 ± 4	904.29 ± 4	1391.5 ± 5.2	1373.9 ± 5.2	1356.7 ± 5.2	1339.9 ± 5.2	1323.4 ± 5.2
x1 = 0.7901	920.284 ± 4	916.95 ± 4	913.616 ± 4	910.264 ± 4	906.897 ± 4	1398.2 ± 5.3	1380.2 ± 5.3	1362.8 ± 5.2	1345.9 ± 5.2	1329.3 ± 5.2
x1 = 0.8493	923.093 ± 4	919.763 ± 4	916.446 ± 4	913.124 ± 4	909.786 ± 4	1406.5 ± 5.3	1388 ± 5.3	1370.2 ± 5.3	1352.9 ± 5.3	1336.2 ± 5.3
x1 = 0.8904	924.887 ± 4	921.547 ± 4	918.232 ± 4	914.921 ± 4	911.604 ± 4	1412.5 ± 5.3	1393.5 ± 5.3	1375.2 ± 5.3	1357.7 ± 5.3	1340.7 ± 5.3
x1 = 0.94	927.026 ± 4	923.73 ± 4	920.395 ± 4	917.09 ± 4	913.789 ± 4	1420.7 ± 5.3	1400.8 ± 5.3	1382 ± 5.3	1364 ± 5.3	1346.7 ± 5.3
x1 = 1	928.794 ± 4	925.509 ± 4	922.217 ± 4	918.88 ± 4	915.567 ± 4	1431.5 ± 5.3	1410.3 ± 5.3	1390.4 ± 5.3	1371.5 ± 5.3	1353.6 ± 5.3
